Laboratory results taken from US11058737B2, “Use of Euycoma longifolia extract in alleviating symptoms and/or conditions associated with hormonal imbalance in females” ([…] BERHAD, priority 2018, dated 2021).

Experiments:
Assay type in all cases: in vivo, Sprague Dawley rats
ovariectomized rats = experiment: Clinical signs of toxicity and mortality in ovariectomized rat model; conditions: 10 mg/kg intramuscular once every 4 weeks, 8 weeks
Experimental: (§1) 48 female Sprague dawley rats were ovariectomized or sham operated. Both sham and ovariectomized rats (n=8) received the vehicle. The remaining 3 group ovariectomized rats were orally administrated with Eurycoma longifolia aqueous extract 100 mg/kg, 300 mg/kg and 500 mg/kg b.w. The treatment continued for 8 weeks. Group 6 ovariectomized rats received testosterone undecanoate (10 mg/kg b.w) through the route of intramuscular injection once in every 4 weeks for 8 weeks. At week 8 of the last dose, sexual behaviors were recorded. Blood was collected for biochemical analysis. Calcium, phosphate, bone alkaline phosphatase (ALP), osteocalcin and hormone profile estimation was done. […]
(§2) In Group 2, only ovariectomy was performed. […] 30 gms feed was added daily to each animal in the morning time and leftover feed was recorded on next day from the same animal cage. […]

ovariectomized rat model [1] = experiment: Biochemical estimations: serum calcium, phosphate, bone alkaline phosphatase, osteocalcin; conditions: ovariectomized rats
Experimental: (§3) The test item, i.e. aqueous extract of Eurycoma longifolia, was studied for its capabilities or effect in relation to the alleviation or treatment of menopause symptoms and hormonal activity against ovariectomized rat model in vivo.
(§4) 48 female Sprague dawley rats were ovariectomized or sham operated. Both sham and ovariectomized rats (n=8) received the vehicle. The remaining 3 group ovariectomized rats were orally administrated with Eurycoma longifolia aqueous extract 100 mg/kg, 300 mg/kg and 500 mg/kg b.w. The treatment continued for 8 weeks. Group 6 ovariectomized rats received testosterone undecanoate (10 mg/kg b.w) through the route of intramuscular injection once in every 4 weeks for 8 weeks. At week 8 of the last dose, sexual behaviors were recorded. Blood was collected for biochemical analysis. Calcium, phosphate, bone alkaline phosphatase (ALP), osteocalcin and hormone profile estimation was done.
(§5) Test System • Animal species: Rats • Strain: Sprague Dawley • Justification for Selection of Species: Recommended and Justified by sponsor • Sex: Female • Age: 10-12 weeks (Mohamed et al, 2016) • Source of supply: In house breed • No. of groups: 6 • Group 1: Sham operated group (surgically opened but no ovariectomy) • Group 2: Ovariectomy group (Negative control) • Group 3: Ovariectomy+Low dose extract • Group 4: Ovariectomy+Middle dose extract • Group 5: Ovariectomy+High dose extract • Group 6: Ovariectomy+Testosterone undecanoate (Positive control) • No. of Animals/Group: 8 females/group • Age at Treatment: 12 weeks • Body Weight Range at Receipt: 120-250 gms • Animal Identification: Each animal will be marked by picric acid and numbering will be given individually to each animal. • Acclimatization: The rats were acclimatized for 1 week before treatment.
(§6) In Group 2, only ovariectomy was performed. Group 3, Group 4 and Group 5 received the Eurycoma longifolia aqueous extract daily at low dose (100 mg/kg), middle dose (300 mg/kg) and high dose (500 mg/kg) at respective concentrations orally for 8 weeks, whereas Group 6 received Testosterone undecanoate (10 mg/kg) intramuscular injection once in every 4 weeks for 8 weeks. • (i) Surgical Procedure • Anesthesia was induced by intraperitoneal injection of ketamine HCL (80 mg/kg) and the depth of anesthesia was checked by monitoring respiratory rate or simply testing the animal response to gentle pressure on the hind paws. After the onset of anesthesia, animal was placed under operating area. Clippers were used to clip the skin and shaved fur bilaterally to expose skin. The procedure was carried out by making two incisions to separately reach each ovary. Shaved skin was swab with 70% (v/v) ethanol. Anaesthetized animal was placed on the operating table with its back exposed and its tail towards the operator. A single dorsal incision (1 cm) was made penetrating the skin using small scissors. Incision was made in the lower back, directly below the bottom of the rib cage. Gently subcutaneous connective tissue was made free from the underlying muscle on each side using blunt forceps. Ovary was located under the thin muscle layer and a small incision (less than 1 cm) was made on each side to gain entry to the peritoneal cavity. The edge of the incision was holded securely with tooth forceps and the ovarian fat pad was retracted surrounding ovaries with blunt forceps to expose oviduct. […] 30 gms feed was added daily to each animal in the morning time and leftover feed was recorded on next day from the same animal cage. […]

ovariectomized rat model [2] = experiment: Reproductive hormone levels in rat serum (FSH, LH, progesterone, estrogen, testosterone; CLIA); conditions: ovariectomized rats, 10 mg/kg intramuscular once every 4 weeks, 8 weeks
Experimental: as §3, §4, §5, §6

ovariectomized rat model [3] = experiment: Uterus weight at necropsy; conditions: ovariectomized rats, 10 mg/kg intramuscular once every 4 weeks
Experimental: as §1, §2

[4] = Body weight of ovariectomized rats; conditions: 10 mg/kg intramuscular once every 4 weeks
Experimental: as §4, §5
as §6, with “oviduct. Ovary was removed by gently severing the oviduct, using sterile, small scissors. Uterus was replaced and remaining part of the oviduct back into the abdominal cavity. Muscle layer was sutured and procedure was repeated for the other ovary.” for “oviduct.”

[5] = serum, 10 mg/kg intramuscular once every 4 weeks, 8 weeks, 10 mg/kg

SMILES: CCCCCCCCCCC(=O)O[C@H]1CC[C@H]2[C@@H]3CCC4=CC(=O)CC[C@]4(C)[C@H]3CC[C@]12C [Testosterone undecanoate]
- No. of Mortality/No. of Animals Dosed (ovariectomized rats): 0/8
- serum osteocalcin levels, change (ovariectomized rat model [1]; positive control 10 mg/kg intramuscular, no significant changes): Decreased serum osteocalcin levels
- Osteocalcin (ovariectomized rat model [1]; serum, 10 mg/kg intramuscular once every 4 weeks, 8 weeks): 7.26 ± 0.20 ng/mL
- Bone Alkaline phosphatase (ovariectomized rat model [1]; [5]): 3.06 ± 0.12 ng/mL
- Calcium (ovariectomized rat model [1]; [5]): 8.48 ± 0.16 mg/dL
- Phosphate (ovariectomized rat model [1]; [5]): 3.29 ± 0.13 mg/dL
- Estrogen (ovariectomized rat model [2]): 12.35 ± 0.25 pg/mL
- FSH (ovariectomized rat model [2]): 3.96±0.22 mlU/ml
- LH (ovariectomized rat model [2]): 3.76±0.11 mlU/ml
- Progesterone (ovariectomized rat model [2]): 3.31 ± 0.15 ng/mL
- Testosterone (ovariectomized rat model [2]): 13.01 ± 0.41 ng/mL
- uterus weight, effect after ovariectomy (ovariectomized rat model [3]): prevented the ovariectomy induced loss of uterus weight
- UTERUS WEIGHT (ovariectomized rat model [3]; 8 weeks, 10 mg/kg): 389.74 ± 8.26 mg
- Body Weight ([4]; Basal): 185.0 ± 3.35
- Body Weight ([4]; Week 1): 196.0 ± 3.17
- Body Weight ([4]; Week 2): 207.4 ± 2.99
- Body Weight ([4]; Week 3): 217.8 ± 3.31
- Body Weight ([4]; Week 4): 229.4 ± 3.24
- Body Weight ([4]; Week 5): 238.6 ± 3.33
- Body Weight ([4]; Week 6): 244.8 ± 3.53
- Body Weight ([4]; Week 7): 252.9 ± 4.37
- Body Weight ([4]; Week 8): 259.3 ± 4.85
- Percentage of Weight Gain ([4]; from basal to Week 1): 5.95%
- Percentage of Weight Gain ([4]; from basal to Week 2): 12.11%
- Percentage of Weight Gain ([4]; from basal to Week 3): 17.73%
- Percentage of Weight Gain ([4]; from basal to Week 4): 24.00%
- Percentage of Weight Gain ([4]; from basal to Week 5): 28.97%
- Percentage of Weight Gain ([4]; from basal to Week 6): 32.32%
- Percentage of Weight Gain ([4]; from basal to Week 7): 36.70%
- Percentage of Weight Gain ([4]; from basal to Week 8): 40.16%
